{"source": "patent US8895502B2", "about": "“β2-glycoprotein I peptide inhibitors” (Kansas State University Research Foundation, priority 2010, dated 2014)", "key": {"[1]": {"tested_on": "hypoxic MS-1 endothelial cells", "assay": "In vitro hypoxia and immunocytochemistry: β2-GPI / anti-β2-GPI mAb binding to hypoxic endothelial cells", "type": "cell-based, mouse", "settings": "peptide 40 μM during 4 hours hypoxia", "protocol": "MS-1 endothelial cells were subjected to hypoxia or normoxia to validate β2-GPI binding in vitro. Hypoxic MS-1 endothelial cells (ATCC CRL-2279) received degassed, serum-free DMEM and were placed in a hypoxia chamber containing 94% nitrogen and 5% CO2. Normoxic cells received DMEM supplemented with 10% heat-inactivated sera from Rag-1^−/− mice in 8% CO2. After 4 hours at 37° C., all cells received fresh medium containing 10% heat-inactivated Rag-1^−/− sera and were incubated in normoxic conditions for 1 hour at 37° C. Additional peptide-inhibition studies were performed by addition of peptides (40 μM final concentration) during the hypoxic period. Cells were methanol fixed and stained with the anti-β2-GPI mAb (Millipore; Billerica, Mass.) followed by an anti-mouse IgG antibody to determine β2-GPI binding. Anti-β2-GPI binding was determined by allowing anti-β2-GPI mAb (Millipore) to bind during the 1 hour normoxic period. The cells were then stained with anti-mouse IgG antibodies (Jackson ImmunoResearch; West Grove, Pa.) as previously described (Fleming, S. D. et al., J. Immunol. 173:7055-7061 (2004)). Slides were mounted with DAPI (Blue) to identify the nuclei. The fluorescence was determined in a blind manner using a Nikon 80i fluorescent microscope with a 40× Plan Fluor objective and images acquired using a CoolSnap Cf camera (Photometrics; Tucson, Ariz.) and MetaVue Imaging software (Molecular Devices; Sunnyvale, Calif.). Each photomicrograph in the Figures is representative of 3 experiments with 4-6 photomicrographs per treatment group in each experiment. Bar=40 μm. Hypoxia was conducted similar to previous studies with the following modifications (Banerjee, S. et al., Reprod. Biol. Endocrinol. 7:4 (2009)). Hypoxic cells received degassed, serum-free DMEM and were placed in a hypoxia chamber containing 94% nitrogen, 5% CO2, and 1% O2. Normoxic cells received normal DMEM with 10% FBS in 8% CO2. After 2 hours at 37° C., all cells received fresh medium containing 10% heat-inactivated Rag-1^−/− sera and then were incubated under normoxic conditions for 1 hour at 37° C. Cells receiving β2-GPI peptides were administered the peptides (40 μM) during the 2 hours of either hypoxia or normoxia. IgG binding was determined using anti-mouse IgG antibodies (Jackson ImmunoResearch) as previously described (Fleming, S. D. et al., J. Immunol. 173:7055-7061 (2004)). Similarly, after Sham or IR, intestinal sections from peptide-treated mice were stained with anti-IgG antibodies to determine antibody deposition. The fluorescence was determined in a blind manner using a Nikon 80i fluorescent microscope and images acquired using a CoolSnap Cf camera (Photometrics) and MetaVue Imaging software (Molecular Devices)."}, "[2]": {"tested_on": "C3", "assay": "Intestinal IR, C3 deposition immunohistochemistry", "type": "in vivo, mouse", "set-up": "key to C3 Deposition: + indicates significant difference from Sham treated mice; − indicates not significantly different from C57B1/6 sham treated mice; +/− indicates no significant difference from either C57B1/6 mice subjected to either Sham or IR", "settings": "for C3 Deposition: C57Bl/6 mice subjected to IR, peptide 40 μM i.v. 5 min prior to artery occlusion; for C3 deposition / complement activation after IR: C57Bl/6 mice, peptide infused prior to IR", "protocol": "C57Bl/6 and Rag-1^−/− mice were subjected to ischemia followed by reperfusion similar to previously described studies (Moses, T. et al., J. Leukoc. Biol. 86:971-980 (2009)). Briefly, ketamine (16 mg/kg) and xylazine (80 mg/kg) were used to anesthetize the mice. Buprenorphine (0.06 mg/kg) was then administered for pain. A midline laparotomy was performed to expose the abdominal cavity of the mice, which were then allowed to equilibrate for 30 min. Body temperature was maintained at 37° C. using a water-circulating heat pad. Placing a warm, saline moistened piece of gauze over the abdominal cavity prevented peritoneal desiccation. […] Ischemia was noted by the intestine changing from a pink color to a gray color. After 30 min of ischemia, the clamp was removed and the intestines were allowed to reperfuse for 5, 10, 15, or 120 min. […] Mice treated with the various β2-GPI peptides underwent the same procedure with i.v. administration of the peptides (40 μM) 5 min prior to artery occlusion. Peptides 296, 305, and 296Cys to Ser were dissolved in N. Saline (0.9% NaCl) and injected i.v. in 100-μL volumes. Peptides 100 and 181 were dissolved in DMSO prior to diluting 1/100 in N. Saline. Additional mice received peptides prior to Sham treatment.\nAfter euthanasia, an additional 2-cm intestinal section from each mouse was immediately snap frozen in O.C.T. freezing medium and 8 μm sections were placed on slides for immunohistochemistry. The C3 deposition and F4/80 expression on the tissue sections were detected by staining with a purified rat-anti-mouse C3 (Hycult Biotechnologies; Plymouth Meeting, Pa.) or F4/80 (eBioscience; San Diego, Calif.) antibody followed by a Texas-red conjugated donkey-anti-rat IgG secondary antibody (Jackson Immunoresearch). CD31 (PECAM-1) and CD106 (VCAM-1) were detected by FITC conjugated rat anti-mouse CD31 or CD106 (Biolegend; San Diego, Calif.) antibodies. Each experiment contained serial sections stained with the appropriate isotype control antibodies. All slides were mounted with ProLong Gold (Invitrogen). Images were obtained at room temperature using a Nikon Eclipse 80i microscope equipped with a CoolSnap CF camera (Photometrics) and analyzed using Metavue software (Molecular Devices). The fluorescence was semi-quantitated using Image J software (NIH) using the fluorescent area fraction after setting threshold for each experiment. The average of the isotype control was subtracted from each photo."}}, "note": "Entries after “also recorded” stand apart in the source; their conditions may differ. Ends that are not written are not given here.", "data": [{"substance": "H-KNISFACNPGFFLNG-NH2 [peptide 100, 16, reference compound]", "values": [{"measurement": "anti-β2-GPI mAb binding to hypoxic MS-1 cells", "setting": "[1]", "value": "did not inhibit antibody binding"}, {"measurement": "C3 Deposition", "setting": "[2]", "value": "+"}, {"measurement": "C3 deposition / complement activation after IR", "setting": "[2]", "value": "did not significantly inhibit C3 deposition"}]}, {"substance": "H-IHFYSKNKEKKSSYTVEAHSRDGTI-OH [peptide 296Cys-Ser]", "values": [{"measurement": "β2-GPI binding to hypoxic endothelial cells", "setting": "[1]", "value": "attenuated β2-GPI binding"}, {"measurement": "C3 Deposition", "setting": "[2]", "value": "−"}, {"measurement": "C3 deposition / complement activation after IR", "setting": "[2]", "value": "significantly decreased C3 deposition; also recorded: attenuated complement activation"}]}, {"substance": "H-KKCSYTVEAHCRDGTIEIPSCFKEHS-OH (cysteine pairing not given here) [peptide 305, 10]", "values": [{"measurement": "anti-β2-GPI mAb binding to hypoxic MS-1 cells", "setting": "[1]", "value": "did not bind"}, {"measurement": "β2-GPI binding to hypoxic endothelial cells", "setting": "[1]", "value": "capable of preventing β2-GPI from binding"}, {"measurement": "C3 Deposition", "setting": "[2]", "value": "−"}, {"measurement": "C3 deposition / complement activation after IR", "setting": "[2]", "value": "not significantly different from either Sham or IR treatment; also recorded: attenuated complement activation"}]}, {"substance": "H-IHFYCKNKEKKCSYTVEAHCRDGTI-OH (cysteine pairing not given here) [peptide 296]", "values": [{"measurement": "anti-β2-GPI mAb binding to hypoxic MS-1 cells", "setting": "[1]", "value": "did not bind"}, {"measurement": "β2-GPI binding to hypoxic endothelial cells", "setting": "[1]", "value": "capable of preventing β2-GPI from binding"}, {"measurement": "C3 Deposition", "setting": "[2]", "value": "−"}, {"measurement": "C3 deposition / complement activation after IR", "setting": "[2]", "value": "significantly decreased C3 deposition; also recorded: attenuated complement activation"}]}, {"substance": "H-IPSCFKEHSSLAFWKTDASELTPC-NH2 (cysteine pairing not given here) [peptide 322, 18]", "values": [{"measurement": "anti-β2-GPI mAb binding to hypoxic MS-1 cells", "setting": "[1]", "value": "did not inhibit antibody binding"}, {"measurement": "C3 Deposition", "setting": "[2]", "value": "+"}, {"measurement": "C3 deposition / complement activation after IR", "setting": "[2]", "value": "did not significantly inhibit C3 deposition"}]}]}
